The source of these data is paper PMC6206036, “Locking loop movement in the ubiquinone pocket of complex I disengages the proton pumps” (Nature Communications, 2018).

Broadly, the Vmax is the top rate of the reaction or transport when substrate is in excess.

Like-named read-outs stand apart in the source and are kept apart here.

For data set [1], the target named is T1, Complex I (proton-pumping NADH:ubiquinone oxidoreductase) (Yarrowia lipolytica, UniProt Q9B6C7+Q9B6E8+Q9UUT7+Q9UUU1).
T1 construct: gene nucm; native complete respiratory complex I in unsealed mitochondrial membranes; nugm-Htg2 (tagged NUGM) strain background; NUKM expressed from replicative plasmid pUB4 under endogenous promoter; 14 central plus accessory subunits; with NADH-ubiquinone oxidoreductase 51 kDa subunit, mitochondrial
As to the kind of experiment: dNADH:DBQ oxidoreductase activity at […] nm, mitochondrial membranes. It is filed as biochemical. As to conditions: 100 µM dNADH, DBQ 0-100 µM, pH 8.5, 25 °C; membranes preincubated with 5 mM DTT for 5 min (ND3-PSST disulfide reduced); read-out: K M ^d /.

Data set [2] has as its target T1, Complex I (proton-pumping NADH:ubiquinone oxidoreductase). Kind of data set: inhibition of dNADH:DBQ oxidoreductase activity, mitochondrial membranes. Format: biochemical. The source says:
inhibition of dNADH:DBQ oxidoreductase activity, mitochondrial membranes on Complex I (proton-pumping NADH:ubiquinone oxidoreductase)

Substrate in data set [3]: CCCCCCCCCCC1=C(C)C(=O)C(OC)=C(OC)C1=O
Kind of data set: cells, lysate or membranes. It is filed as biochemical, Yarrowia lipolytica. As to conditions: 100 µM dNADH, DBQ 0-100 µM, pH 8.5, 25 °C, membranes preincubated with 5 mM DTT for 5 min.

In the case of `CCCCCCCCCCC1=C(C)C(=O)C(OC)=C(OC)C1=O` [DBQ, decylubiquinone], the Km in data set [1] turned out to be 19 ± 3 µM.

For the molecule `CCCCCCCCCCc1nc(N)c2ccccc2n1` [DQA, 2-n-decyl-quinazolin-4-yl-amine], the IC50 was 13 ± 3 nM in data set [2] (100 µM dNADH, 100 µM DBQ, pH 8.5, 25 °C, membranes preincubated with 5 mM DTT for 5 min (ND3-PSST disulfide reduced)) and 16 ± 3 nM in data set [2] (100 µM dNADH, 100 µM DBQ, pH 8.5, 25 °C, membranes preincubated with 5 mM DTT for 5 min, read-out: IC50^e / DQA /).

For `C=C(C)[C@H]1Cc2c(ccc3c2O[C@@H]2COc4cc(OC)c(OC)cc4[C@@H]2C3=O)O1` [rotenone], the IC50 in data set [2] (read-out: IC50^e / Rotenone /) was determined as 560 ± 55 nM.

B1: Complex I (proton-pumping NADH:ubiquinone oxidoreductase) (Yarrowia lipolytica CLIB122) (protein)
chain 1: MATTALPQDPIPSGALGQKVPHVDESHQDLLFRTSHMVEDLETYDEDSPINTSDANTRIRAFTINFGPQHPAAHGVLRLILELSGEEIIRSDPHVGLLHRGTEKLIEYKTYMQALPYFDRLDYVSMMTNEQVFSLAVEKLLNVEVPLRGKYIRTMFGEITRVLNHLMSVCSHAMDVGALTPFLWGFEEREKLMEFYERVSGARLHAAYVRPGGVSQDLPAGLLDDIYMWATQFGDRLDEIEELLTDNRIWKLRTVNIGTVTAQDALNLGLSGPMLRGSGIPFDIRKNAPYDAYDKVDFDVPVGMNGDCYDRYLIRMAEFRQSLRIIEQCCNDMPAGAVKVEDFKINSPPRNLMKEDMEALIHHFLLYTKGYSVPPGETYTAIEAPKGEMGVYVVSDGSERPYKCKIRAPGFAHLGAFDHIARGHFLPDAVAIIGTMDLVFGEVDR
chain 2: SAPAGTPRVSSSSMPTDFPLPSQQKPNSAVDYTLTTLDAVANWARQGSFWPVTFGLACCAVEMMHVSAPRYDQDRLGIIFRASPRQSDIMIVAGTLTNKMAPVLRQVYDQMPEPRWVISMGSCANGGGYYHFSYSVVRGCDRIVPVDVYVPGCPPTSEALMYGVFQLQRKMRNTKITRMWYRK
chain 3: MIINIVEILIFLVCVLFSVAYLTVAERKTLAYMQRRLGPNFVGYYGLLQAFADAVKLLLKEIVLPKESNYIILVISPLITLITALIGWVVIPLGPGITLGELNLGILFSLAIGSLGVFGSLLSGWSSNSKYSLLGSIRSTAQLISYELILTSIFIIIIMFVSSLNITTIIETQRVVWYCIPLLPLLLIFFIASVAETARPPFDLTESESELVAGYFTEYSGSPFVFFFLAEYSNIILISAFNGYLLLGGYLSFNYSYLFNILFNDYSYVSFLFEGLINSSAYAIKLVFLMFSFIWVRAAFPRFTYDNLINFCWIILLPLLFGIFLIIPSTLYIFDSFPTLI
chain 4: MNTFIIFIILIPIVGFALLAVNILLAVYKPYNEKLGAFECGLTSFNQTRLAFNAAFILVAILFLPFDLEISTLLPYVMSIYLVSNYGFTIVLLFLLILIIGFVYEINTNALKINKHNKPNTDSLIYKL
notes: native complete respiratory complex I in unsealed mitochondrial membranes; nugm-Htg2 (tagged NUGM) strain background; NUKM expressed from replicative plasmid pUB4 under endogenous promoter; 14 central plus accessory subunits; with NADH-ubiquinone oxidoreductase 51 kDa subunit, mitochondrial
Consider B1, for which, in data set [3], the Km came out at 17 ± 3 µM and the Vmax amounted to 0.16 µmol/min/mg.
